Source: patent US20210228463A1, “COMPOSITION FOR FAT FORMATION INHIBITION AND BODY FAT REDUCTION, CONTAINING HYDRANGENOL AS ACTIVE INGREDIENT” (COSMAX BIO CO., LTD., priority 2019, published 2021)

Assay: Effects of WHS on liver and kidney (serum GOT, GPT, BUN)
Type: in vivo
Settings: obese mice (HFD) + oral orlistat
Experimental: To analyze in vivo anti-obesity efficacy of WHS, animal models of obesity were first prepared. 8-week-old male C57BL/6N mice (specific-pathogen-free (SPF) grade, 20±2 g, Orient Bio) were set into 7 groups as follows, and 10 mice per each group were tested: as normal control groups, normal mice (con) with no high fat diet and no administration, and obese mice (HFD) with induction of obesity by 30% high fat diet and no administration, and as a positive control group, obese mice with oral administration of orlistat which is an anti-obesity agent. As experimental groups, obese mice with oral administration of WHS of 75 mg/kg, 150 mg/kg, or 300 mg/kg, and normal mice with oral administration of WHS of 300 mg/kg were used. Further, experiments were performed by dividing mice into those which were administered with WHS for 12 weeks at the same time with induction of obesity, and those which were administered with WHS after induction of obesity for 10 weeks. WHS was orally administered for 5 days per week during the administration period. A dark: light cycle was maintained at intervals of 12 hours: 12 hours, and mice were allowed to free access to water. To examine whether WHS induced liver and kidney damage in mice, glutamic oxalacetic transaminase (GOT), glutamic pyruvate transaminase (GPT), and blood urea nitrogen (BUN) of the WHS-administered group with induction of obesity were measured by serum analysis using a biochemical analyzer (AU480 Chemistry Analyzer, Beckman coulter, Calif., USA).

BUN: 19.89 mg/dL
GOT: 63 U/L
GPT: 17.6 U/L
Compound: CCCCCCCCCCC[C@@H](C[C@@H]1OC(=O)[C@H]1CCCCCC)OC(=O)[C@H](CC(C)C)NC=O [Orlistat, orlistat]
